Data published in US20230271950A1, “ANTIBACTERIAL PICOLINAMIDE COMPOUNDS” (University of Notre Dame Du Lac, priority 2020, published 2023).
≈ marks a conversion by molar mass, not a printed value. Like-named read-outs stand apart in the source and are kept apart here.

Assays:
Bacteroides fragilis = test: MIC against gut bacterium Bacteroides fragilis; type: cell-based; settings: Bacteroides fragilis, Bacteroides fragilis strain HM-709; Table 7; read-out: MIC
E. faecium NCTC7171 = test: MIC against E. faecium; type: cell-based, Enterococcus faecium; settings: Enterococcus faecium, NCTC7171; E. faecium NCTC 7171; Table 10, unit inferred; read-out: Activity (MIC) against E. faecium
Corynebacterium spp. = test: MIC against gut bacterium Corynebacterium spp.; type: cell-based; settings: Corynebacterium, Corynebacterium spp. strain HM-784; Table 7
MRSA (NRS70, NRS119) = test: MIC against MRSA strains; type: cell-based, Staphylococcus aureus; settings: Staphylococcus aureus
Bifidobacterium longum = test: MIC against gut bacterium Bifidobacterium longum; type: cell-based; settings: Bifidobacterium longum, Bifidobacterium longum strain HM-846; Table 7; read-out: MIC
Lactobacillus reuteri = test: MIC against gut bacterium Lactobacillus reuteri; type: cell-based; settings: Limosilactobacillus reuteri; Lactobacillus reuteri strain HM-102; Table 7; read-out: MIC
Eubacterium sp. = test: MIC against gut bacterium Eubacterium sp.; type: cell-based; settings: Eubacterium, Eubacterium sp. strain HM-178; Table 7; read-out: MIC
C. difficile = test: MIC by broth microdilution against C. difficile strains; type: cell-based, Clostridioides difficile; settings: for MIC: Clostridioides difficile
Fusobacterium nucleatum = test: MIC against gut bacterium Fusobacterium nucleatum; type: cell-based; settings: Fusobacterium nucleatum, Fusobacterium nucleatum strain HM-992; Table 7; read-out: MIC
S. aureus ATCC29213 = test: MIC against MSSA; type: cell-based, Staphylococcus aureus; settings: Staphylococcus aureus; MSSA ATCC 29213; Table 10, unit inferred; read-out: Activity (MIC) against S. aureus
HeLa cells = test: XTT cytotoxicity assay with HeLa cells; type: cell-based; settings: Homo sapiens, Table 6
Method: XTT assay. Cytotoxicity assays were performed in triplicate against HeLa cells (ATCC CCL-2). The IC50 values were calculated by nonlinear regression with GraphPad Prism 5 (San Diego, Calif.).
XTT assay. XTT assays were performed with HeLa cells (ATCC CCL-2) in triplicate, as previously described (Lancet 2008, 371, 1486). IC50 values were determined by nonlinear regression using GraphPad Prism 5 (San Diego, Calif.).

Lactobacillus gasseri = test: MIC against gut bacterium Lactobacillus gasseri; type: cell-based; settings: Lactobacillus gasseri strain HM-644; Table 7; read-out: MIC
Veillonella sp. HM-49 = test: MIC against gut bacterium Veillonella sp.; type: cell-based; settings: SP.HM49; Veillonella sp. strain HM-49; Table 7; read-out: MIC

`O=C(Nc1ncco1)c1ccnc(-c2ccc(Cl)c(Cl)c2)c1` [Compound 4, 2-(3,4-Dichlorophenyl)-N-(oxazol-2-yl)isonicotinamide] showed an MIC (Bacteroides fragilis) of 1 µg/mL (≈ 2.99 µM), an MIC (E. faecium NCTC7171) of 0.06 µg/mL (≈ 0.18 µM) and an MIC (Corynebacterium spp.) of 0.5 µg/mL (≈ 1.5 µM). It also gave an MIC (MRSA (NRS70, NRS119); MRSA NRS70, Table 7, read-out: MIC) of 0.25 µg/mL (≈ 0.748 µM), an MIC (MRSA (NRS70, NRS119); NRS70 strain, Table 2 (SAR^1), read-out: MIC MRSA) of 0.25 µg/mL (≈ 0.748 µM) and an MIC (MRSA (NRS70, NRS119); NRS70 strain, Table 3 (SAR^2 and SAR^3), read-out: MIC MRSA) of 0.25 µg/mL (≈ 0.748 µM). For the same compound, the MIC (Bifidobacterium longum) was over 16 µg/mL, the MIC (Lactobacillus reuteri) was 8 µg/mL (≈ 23.9 µM) and the MIC (Eubacterium sp.) was over 16 µg/mL. It also gave an MIC (C. difficile; ATCC43255, ATCC 43255, ribotype 087, Table 2 (SAR^1), read-out: MIC C. difficile) of 0.25 µg/mL (≈ 0.748 µM), an MIC (C. difficile; ATCC43255, ATCC 43255, ribotype 087, Table 3 (SAR^2 and SAR^3), read-out: MIC C. difficile) of 0.25 µg/mL (≈ 0.748 µM) and an MIC (C. difficile; ATCC43255, C. difficile ATCC43255, Table 7, read-out: MIC) of 0.25 µg/mL (≈ 0.748 µM). The MIC (C. difficile; ATCC43255, C. difficile ATCC 43255, read-out: MIC against C. difficile) was 0.25 µg/mL (≈ 0.748 µM), the MIC (C. difficile; ATCC43598, C. difficile ATCC43598, Table 7, read-out: MIC) was 0.0625 µg/mL (≈ 0.187 µM) and the MIC (C. difficile; BAA1801, C. difficile BAA-1801, Table 7, read-out: MIC) was 0.25 µg/mL (≈ 0.748 µM). The MIC (C. difficile; BAA1803, C. difficile BAA-1803, Table 7, read-out: MIC) was 0.5 µg/mL (≈ 1.5 µM), the MIC (C. difficile; BAA1804, C. difficile BAA-1804, Table 7, read-out: MIC) was 0.0625 µg/mL (≈ 0.187 µM) and the MIC (C. difficile; BAA1812, C. difficile BAA-1812, Table 7, read-out: MIC) was 0.125 µg/mL (≈ 0.374 µM). For the same compound, the MIC (C. difficile; BAA1814, C. difficile BAA-1814, Table 7, read-out: MIC) was 0.125 µg/mL (≈ 0.374 µM), the MIC (C. difficile; BAA1870, C. difficile BAA-1870, Table 7, read-out: MIC) was at most 0.25 µg/mL and the MIC (C. difficile; C. difficile 23691 (VR, vancomycin-resistant), Table 7, read-out: MIC) was 0.25 µg/mL (≈ 0.748 µM). For the same compound, the MIC (C. difficile; C. difficile 23828 (FR, fidaxomicin-resistant), Table 7, read-out: MIC) was 0.125 µg/mL (≈ 0.374 µM), the MIC (C. difficile; C. difficile 24531 (VR, vancomycin-resistant), Table 7, read-out: MIC) was 0.125 µg/mL (≈ 0.374 µM) and the MIC (C. difficile; C. difficile 24923 (VR, vancomycin-resistant), Table 7, read-out: MIC) was 0.125 µg/mL (≈ 0.374 µM). It also gave an MIC (C. difficile; C. difficile 26675 (MR, metronidazole-resistant), Table 7, read-out: MIC) of 0.25 µg/mL (≈ 0.748 µM), an MIC (C. difficile; C. difficile 27081 (FR, fidaxomicin-resistant), Table 7, read-out: MIC) of 0.125 µg/mL (≈ 0.374 µM) and an MIC (C. difficile; C. difficile 27173 (MR, metronidazole-resistant), Table 7, read-out: MIC) of 0.125 µg/mL (≈ 0.374 µM). It also gave an MIC (C. difficile; C. difficile NR49292, Table 7, read-out: MIC) of 0.125 µg/mL (≈ 0.374 µM), an MIC (C. difficile; C. difficile NR49294, Table 7, read-out: MIC) of 0.0625 µg/mL (≈ 0.187 µM) and an MIC (C. difficile; C. difficile NR49302, Table 7, read-out: MIC) of 0.0625 µg/mL (≈ 0.187 µM). The MIC (C. difficile; C. difficile NR49305, Table 7, read-out: MIC) was 0.125 µg/mL (≈ 0.374 µM), the MIC (C. difficile; C. difficile NR49310, Table 7, read-out: MIC) was 0.0625 µg/mL (≈ 0.187 µM) and the MIC (C. difficile; C. difficile NR49318, Table 7, read-out: MIC) was 0.125 µg/mL (≈ 0.374 µM). For the same compound, the MIC (C. difficile; C. difficile, Table 8, read-out: MIC) was 0.25 µg/mL (≈ 0.748 µM), the Selectivity (C. difficile; MIC MRSA NRS70/MIC C. difficile ATCC43255, Table 7) was 1 and the Selectivity (C. difficile; MIC MRSA/MIC C. difficile, Table 3) was 1. The Selectivity (C. difficile; Table 8) was 1, the MIC (Fusobacterium nucleatum) was 8 µg/mL (≈ 23.9 µM) and the MIC (S. aureus ATCC29213) was 0.06 µg/mL (≈ 0.18 µM). It also gave an IC50 (HeLa cells) of 79.9 ± 1 µg/mL (≈ 239 µM), an MIC (Lactobacillus gasseri) of over 16 µg/mL and an MIC (Veillonella sp. HM-49) of 4 µg/mL (≈ 12 µM).
